According to patent US20250090520A1, “DERIVATIVES OF TURBINMICIN AS ANTIFUNGAL AGENTS” (Wisconsin Alumni Research Foundation, priority 2021, published 2025):
In brackets after ≈: the same amount, converted by molar mass. Like-named read-outs stand apart in the source and are kept apart here.

Experiments:
C. auris B 11211 = assay: In vitro MIC susceptibility testing, broth microdilution; format: cell-based, Candida auris; conditions: for MIC: Candidozyma auris, read-out: MIC C. auris B11211
Method: In vitro MIC susceptibility testing. Turbinmicin analogs of the present disclosure were tested for antifungal activity against four Candida isolates, C. albicans K-1, C. tropicalis 98-234, C. auris B 11211, and C. glabrata 4720, and MICs were determined using a broth microdilution method for yeasts. A turbinmicin analog was dissolved in DMSO, serially diluted to 10 concentrations (0.125-64 μg/mL), and tested in a 96-well plate in RPMI medium. […] Six untreated media controls were included on each plate. The plates were incubated at 33° C. for 24 hours. The MICs were determined as the lowest concentration that inhibited visible growth. The MICs were read at 24.

C. glabrata 4720 = assay: as above; format: cell-based, Candida glabrata; conditions: for MIC: read-out: MIC C. glabrata 4720
Method: (§1) In vitro MIC susceptibility testing. […] Six untreated media controls were included on each plate. The plates were incubated at 33° C. for 24 hours. The MICs were determined as the lowest concentration that inhibited visible growth. The MICs were read at 24.

C. tropicalis 98-234 = assay: as above; format: cell-based, Candida tropicalis; conditions: for MIC: read-out: MIC C. tropicalis 98-234
Method: as §1

C. albicans K-1 = assay: as above; format: cell-based, Candida albicans; conditions: for MIC: Candida albicans, read-out: MIC C. albicans K-1
Method: as §1

[1] = system: four Candida isolates, C. albicans K-1, C. tropicalis 98-234, C. auris B 11211, and C. glabrata 4720; assay: In vitro MIC susceptibility testing, positive control over the isolates; format: cell-based; conditions: RPMI medium, 33° C., 24 hours
Method: In vitro MIC susceptibility testing. Turbinmicin analogs of the present disclosure were tested for antifungal activity against four Candida isolates, C. albicans K-1, C. tropicalis 98-234, C. auris B 11211, and C. glabrata 4720, and MICs were determined using a broth microdilution method for yeasts. A turbinmicin analog was dissolved in DMSO, serially diluted to 10 concentrations (0.125-64 μg/mL), and tested in a 96-well plate in RPMI medium. Amphotericin B was used as a positive control and the MICs range were 0.25-1.5 μg/mL. Six untreated media controls were included on each plate. The plates were incubated at 33° C. for 24 hours. The MICs were determined as the lowest concentration that inhibited visible growth. The MICs were read at 24. Results are shown in Table 1 for turbinmicin analog activity against various fungi, including drug-resistant fungi.

[2] = Nakaseomyces glabratus, 4720, 24 h
[3] = Candida tropicalis, 98234, 24 h
[4] = B11211, multidrug-resistant clinical isolate, RPMI medium, 33° C., 24 hours, lowest concentration that inhibited visible growth
[5] = Nakaseomyces glabratus, 4720, RPMI medium, 33° C., 24 hours, lowest concentration that inhibited visible growth
[6] = Candida tropicalis, 98234, RPMI medium, 33° C., 24 hours, lowest concentration that inhibited visible growth
[7] = K1, RPMI medium, 33° C., 24 hours, lowest concentration that inhibited visible growth
[8] = RPMI medium, 33° C., 24 hours, lowest concentration that inhibited visible growth

Row | Compound | MIC (C. auris B 11211; B11211, 24 h) | MIC (C. glabrata 4720; [2]) | MIC (C. tropicalis 98-234; [3]) | MIC (C. albicans K-1; K1, 24 h) | other results
1 | C/C=C/C=C/C=C/C(=O)O[C@@H]1C=CC[C@H]2/C(=N/CCN(C)C)c3c(O)c4c5c(c3O[C@H]12)OCO[C@@H]5C[C@@H]1C(=O)c2cc(C)[nH]c(=O)c2C(=O)[C@]41O [Compound T8] | 0.25 µg/mL (≈ 0.358 µM) | 0.25 µg/mL (≈ 0.358 µM) | 0.13 µg/mL (≈ 0.186 µM) | 0.13 µg/mL (≈ 0.186 µM) | 
2 | C/C=C/C=C/C=C/C(=O)O[C@@H]1C=CC[C@H]2C(=NCCN3CCCC3)c3c(O)c4c5c(c3O[C@H]12)OCO[C@@H]5C[C@@H]1C(=O)c2cc(C)[nH]c(=O)c2C(=O)[C@]41O [Compound T19] | 0.25 µg/mL (≈ 0.345 µM) | 0.5 µg/mL (≈ 0.691 µM) | 0.38 µg/mL (≈ 0.525 µM) | 0.5 µg/mL (≈ 0.691 µM) | 
3 | C/C=C/C=C/C=C/C(=O)O[C@@H]1C=CC[C@H]2/C(=N\C(C)CN3CCOCC3)c3c(O)c4c5c(c3O[C@H]12)OCO[C@@H]5C[C@@H]1C(=O)c2cc(C)[nH]c(=O)c2C(=O)[C@]41O (stereo partly drawn) [Compound T25] | 0.25 µg/mL (≈ 0.332 µM) | 0.5 µg/mL (≈ 0.663 µM) | 1 µg/mL (≈ 1.33 µM) | 0.5 µg/mL (≈ 0.663 µM) | 
4 | C/C=C/C=C/C=C/C(=O)O[C@@H]1C=CC[C@H]2/C(=N/C)c3c(O)c4c5c(c3O[C@H]12)OCO[C@@H]5C[C@@H]1C(=O)c2cc(C)[nH]c(=O)c2C(=O)[C@]41O [Compound T12] | > 4 µg/mL | 0.5 µg/mL (≈ 0.78 µM) | 1 µg/mL (≈ 1.56 µM) | 1 µg/mL (≈ 1.56 µM) | 
5 | C/C=C/C=C/C=C/C(=O)O[C@@H]1C=CC[C@H]2/C(=N/CCc3ccccn3)c3c(O)c4c5c(c3O[C@H]12)OCO[C@@H]5C[C@@H]1C(=O)c2cc(C)[nH]c(=O)c2C(=O)[C@]41O [Compound T13] | > 4 µg/mL | > 4 µg/mL | > 4 µg/mL | > 4 µg/mL | 
6 | C[C@@H]1[C@H](O)[C@@H](C)/C=C/C=C/C=C/C=C/C=C/C=C/C=C/[C@H](O[C@@H]2O[C@H](C)[C@@H](O)[C@H](N)[C@@H]2O)C[C@@H]2O[C@](O)(C[C@@H](O)C[C@@H](O)[C@H](O)CC[C@@H](O)C[C@@H](O)CC(=O)O[C@H]1C)C[C@H](O)[C@H]2C(=O)O [Amphotericin B] |  |  |  |  | MICs range (positive control) [1]: 0.25 to 1.5 µg/mL
7 | C/C=C/C=C/C=C/C(=O)O[C@@H]1C=CC[C@H]2/C(=N/Cc3ccccc3)c3c(O)c4c5c(c3O[C@H]12)OCO[C@@H]5C[C@@H]1C(=O)c2cc(C)[nH]c(=O)c2C(=O)[C@]41O [Compound T10] |  |  |  |  | MIC (C. auris B 11211; [4]): 4 µg/mL (≈ 5.58 µM); MIC (C. glabrata 4720; [5]): 1 µg/mL (≈ 1.4 µM); MIC (C. tropicalis 98-234; [6]): 4 µg/mL (≈ 5.58 µM); MIC (C. albicans K-1; [7]): 2 µg/mL (≈ 2.79 µM)
8 | C/C=C/C=C/C=C/C(=O)O[C@@H]1C=CC[C@H]2C(=NCCCN3CCOCC3)c3c(O)c4c5c(c3O[C@H]12)OCO[C@@H]5C[C@@H]1C(=O)c2cc(C)[nH]c(=O)c2C(=O)[C@]41O [Compound T23] |  |  |  |  | MIC (C. auris B 11211; [4]): 0.63 µg/mL (≈ 0.836 µM); MIC (C. glabrata 4720; [5]): 1 µg/mL (≈ 1.33 µM); MIC (C. tropicalis 98-234; [6]): 1 µg/mL (≈ 1.33 µM); MIC (C. albicans K-1; [7]): 1 µg/mL (≈ 1.33 µM)
9 | C/C=C/C=C/C=C/C(=O)O[C@@H]1C=CC[C@H]2C(=NCCN3CCS(=O)(=O)CC3)c3c(O)c4c5c(c3O[C@H]12)OCO[C@@H]5C[C@@H]1C(=O)c2cc(C)[nH]c(=O)c2C(=O)[C@]41O [Compound T24] | 0.28 µg/mL (≈ 0.355 µM) | 1 µg/mL (≈ 1.27 µM) | 1 µg/mL (≈ 1.27 µM) | 0.75 µg/mL (≈ 0.952 µM) | 
10 | C/C=C/C=C/C=C/C(=O)O[C@@H]1C=CC[C@H]2C(=NCCCCCN3CCOCC3)c3c(O)c4c5c(c3O[C@H]12)OCO[C@@H]5C[C@@H]1C(=O)c2cc(C)[nH]c(=O)c2C(=O)[C@]41O [Compound T27] | 0.5 µg/mL (≈ 0.64 µM) | 1 µg/mL (≈ 1.28 µM) | 2 µg/mL (≈ 2.56 µM) | 1 µg/mL (≈ 1.28 µM) | 
11 | C/C=C/C=C/C=C/C(=O)O[C@@H]1C=CC[C@H]2/C(=N/CCO)c3c(O)c4c5c(c3O[C@H]12)OCO[C@@H]5C[C@@H]1C(=O)c2cc(C)[nH]c(=O)c2C(=O)[C@]41O [Compound T7] | > 4 µg/mL | > 4 µg/mL | > 4 µg/mL | > 4 µg/mL | 
12 | C#CC/N=C1\c2c(O)c3c4c(c2O[C@@H]2[C@H](OC(=O)/C=C/C=C/C=C/C)C=CC[C@@H]12)OCO[C@@H]4C[C@@H]1C(=O)c2cc(C)[nH]c(=O)c2C(=O)[C@]31O [Compound T15] | > 4 µg/mL | > 4 µg/mL | > 4 µg/mL | > 4 µg/mL | 
13 | Turbinmicin [reference compound] |  |  |  |  | MIC C. auris B11211 (C. auris B 11211; multidrug-resistant clinical isolate, RPMI medium, 33° C., 24 hours, lowest concentration that inhibited visible growth): 0.05 µg/mL; MIC C. glabrata 4720 (C. glabrata 4720; [8]): 0.13 µg/mL; MIC C. tropicalis 98-234 (C. tropicalis 98-234; [8]): 0.25 µg/mL; MIC C. albicans K-1 (C. albicans K-1; [8]): 0.06 µg/mL
14 | C/C=C/C=C/C=C/C(=O)O[C@@H]1C=CC[C@H]2/C(=N/CCN3CCCCC3)c3c(O)c4c5c(c3O[C@H]12)OCO[C@@H]5C[C@@H]1C(=O)c2cc(C)[nH]c(=O)c2C(=O)[C@]41O [Compound T21] | 0.06 µg/mL (≈ 0.0813 µM) | 0.25 µg/mL (≈ 0.339 µM) | 0.25 µg/mL (≈ 0.339 µM) | 0.25 µg/mL (≈ 0.339 µM) | 
15 | C/C=C/C=C/C=C/C(=O)O[C@@H]1C=CC[C@H]2C(=NCCCNC)c3c(O)c4c5c(c3O[C@H]12)OCO[C@@H]5C[C@@H]1C(=O)c2cc(C)[nH]c(=O)c2C(=O)[C@]41O [Compound T18] | 0.38 µg/mL (≈ 0.545 µM) | 0.5 µg/mL (≈ 0.717 µM) | 0.75 µg/mL (≈ 1.07 µM) | 1 µg/mL (≈ 1.43 µM) | 
16 | C/C=C/C=C/C=C/C(=O)O[C@@H]1C=CC[C@H]2/C(=N/CCCC)c3c(O)c4c5c(c3O[C@H]12)OCO[C@@H]5C[C@@H]1C(=O)c2cc(C)[nH]c(=O)c2C(=O)[C@]41O [Compound T6] |  |  |  |  | MIC (C. auris B 11211; [4]): > 4 µg/mL; MIC (C. glabrata 4720; [5]): > 4 µg/mL; MIC (C. tropicalis 98-234; [6]): > 4 µg/mL; MIC (C. albicans K-1; [7]): > 4 µg/mL
17 | C/C=C/C=C/C=C/C(=O)O[C@@H]1C=CC[C@H]2C(=NCCN3CCN(C)CC3)c3c(O)c4c5c(c3O[C@H]12)OCO[C@@H]5C[C@@H]1C(=O)c2cc(C)[nH]c(=O)c2C(=O)[C@]41O [Compound T26] |  |  |  |  | MIC (C. auris B 11211; [4]): 0.03 µg/mL (≈ 0.0399 µM); MIC (C. glabrata 4720; [5]): 0.5 µg/mL (≈ 0.664 µM); MIC (C. tropicalis 98-234; [6]): 0.05 µg/mL (≈ 0.0664 µM); MIC (C. albicans K-1; [7]): 0.5 µg/mL (≈ 0.664 µM)
18 | C=CC/N=C1/c2c(O)c3c4c(c2O[C@@H]2[C@H](OC(=O)/C=C/C=C/C=C/C)C=CC[C@@H]12)OCO[C@@H]4C[C@@H]1C(=O)c2cc(C)[nH]c(=O)c2C(=O)[C@]31O [Compound T5] | 2 µg/mL (≈ 3 µM) | 4 µg/mL (≈ 6 µM) | 4 µg/mL (≈ 6 µM) | 2 µg/mL (≈ 3 µM) | 
